Experimental data as given in patent US20120121692A1, “COMPOUNDS AND COMPOSITIONS COMPRISING CDK INHIBITORS AND METHODS FOR TREATING CANCER” (SHANDONG UNIVERSITY, priority 2009, published 2012).
Where two headings read alike, the source gives them in different places.

Columns and labels:
[1] = test system: HCT116 cells; test: MTT cytotoxicity screening, human colon cancer cell line HCT116; format: cell-based; details: Homo sapiens
Text: Human colon cancer cell line HCT116 can be used for the preliminary cytotoxicity screening of the disclosed compounds as disclosed by Mosmann, T., “Rapid colorimetric assay for cellular growth and survival: application to proliferation and cytotoxicity assays.” J. Immunol. Methods, (1983) 65(1-2): p. 55-63 referred to herein further as the “MTT test” which is incorporated herein by reference in its entirety.
The disclosure of Mosmann recites the following. “MTT 93-(4,5-dimethylthirazol-2-yl)-2,5-diphenyl tetrazolium bromide; Sigman catalog no. M2128) was dissolved in PBS at 5 mg/ml and filtered to sterilize and remove a small amount of insoluble residue present in some batches of MTT. At the times indicated below, stock MTT solution (10 ml per 100 ml) was added to all wells of an assay, and plates were incubated at 37° C. for 4 h. Acid-siopropanol (100 ml of 0.04 N HCl in isopropanol) was added to all wells and mixed thoroughly to dissolve the dark blue crystals. After a few minutes at room temperature to ensure that all crystals were dissolved, the plates were read o a Dynatech MR580Microelisa reader, using a test wavelength of 570 nm, a reference wavelength of 630 nm, and a calibration setting of 1.99 (or 1.0 if the samples were strongly colored). Plates were normally read within 1 h of adding the isopropanol.
“Our final procedure was to add 0.01 ml MTT (5 mg/ml in phosphate-buffered saline) to 0.1 ml cells in growth medium. After 4 h at 37° C. for MTT cleavage, the formazan product was solublilized by the addition of 0.1 ml 0.04 N HCl in isopropanol. Optical density was measured on a Dynatech MR 580 plate reader, using a reference wavelength of 630 nm and a test wavelength of 570 nm.” 3-(4,5-Dimethylthiazol-2-yl)-2,5-diphenyltetrazolium bromide, a tetrazole, can pass through cellular membrane to enter into cells. This tetrazole may be reduced to the purple formazan in the mitochondria of living cells, which can diffuse out to form crystals. This crystal can be dissolved in the dimethyl sulfoxide to form a colored solution. The absorbance of this colored solution can be quantified by measuring at certain wavelength (490 nm) using a spectrophotometer. The quantity of the formazan crystal is proportional to the number of living cells.
As used herein, cells were cultured in McCoy's 5A medium supplemented with 10% heat-inactivated Fetal Bovine Serum (FBS) and 5% Penicillin/Streptomycin solution. McCoy's 5A, 1× (Iwakata & Grace modified) medium with L-Glutamine, DPBS, 1× w/o Ca and Mg, Penicillin/Streptomycin solution, Trypsin EDTA, 1× and PBS, 1× w/o Ca and Mg were purchased from Mediatech, Inc. (USA). FBS was purchased from Hyclone (USA).
The cytotoxicity of the compounds was estimated using the MTT assay. A 96-well plate was seeded with 100 μl medium containing HCT116 cells in suspension at a density of 2.5×10^4 cells/ml. After 24 hours of incubation, the cells were treated with the compounds, which were dissolved in DMSO (dimethyl sulfoxide) as stock solutions and diluted to final concentrations of 100 μM, 50 μM, 25 μM, 12.5 μM, 6.25 μM & 1 μM (for compounds tested in the micromolar concentrations) and 10 μM, 1 μM, 500 nM, 250 nM, 125 nM & 62.5 nM (for compounds tested in the nanomolar concentration range) using medium containing 0.1% DMSO. The final concentration of DMSO in the culture medium was maintained at 0.1%-0.001% (v/v). After 48 hrs incubation in the presence of test compounds, the spent medium was removed and the wells were washed twice with 100 μL of PBS solution. 100 μL of fresh medium and 10 μL of MTT (5 mg/ml in PBS) was added to the wells and incubated at 37° C. in dark for 4 hrs. The formazan product was dissolved by adding 100 μL of 100% DMSO after removing the medium from each well and was stabilized by adding 12.5 μL of Sorensen's glycine buffer to each well. […]

[2] = HCT-116, 48 hrs incubation, absorbance 490 nm, primary screening, read-out: IC50

Row | SMILES | IC50 [1, 2] [µM] | melting point [°C] | IC50 ([1]; HCT-116, further evaluated after secondary screening (Table VIII), read-out: IC50 value) [µM]
1 | COc1cccc(/C=C/C(=O)c2c(OC)cc(OC)c(C3=CCNCC3)c2O)c1 [Compound B6, (E)-1-(2-hydroxy-4,6-dimethoxy-3-(1,2,3,6-tetrahydropyridine-4-yl)phenyl)-3-(3-methoxyphenyl)-2-propylene-1-one] | 3.08 | 99 to 100 | 
2 | COc1ccc(-c2cc(=O)c3c(O)cc(O)c(C4=CCN(C)CC4)c3o2)cc1 [Compound G4, 5,7-hydroxy-8-(1-methyl-1,2,3,6-tetrahydropyridin-4-yl)-2-(4-methoxyphenyl)-4H-chromen-4-one] | 3.16 | 190 to 191 | 
3 | COc1ccc(/C=C/C(=O)c2c(OC)cc(OC)c(C3=CCNCC3)c2O)c(OC)c1OC [Compound B16, (E)-1-(2-hydroxy-4,6-dimethoxy-3-(1,2,3,6-tetrahydropyridine-4-yl)phenyl)-3-(2,3,4-trimethoxyphenyl)-2-propylene-1-one] | 5.54 | 98 to 100 | 
4 | COc1cc(OC)c2c(=O)cc(-c3ccc(N(C)C)cc3)oc2c1C1=CCN(C)CC1 [Compound F5, 5,7-dimethoxy-8-(1-methyl-1,2,3,6-tetrahydropyridin-4-yl)-2-(4-(dimethylamino)-phenyl)-4H-chromen-4-one] | 7.71 | 148 to 150 | 
5 | COc1cc(OC)c(C2=CCN(C)CC2)c(O)c1C(=O)/C=C/c1cccc(Cl)c1 [Compound A7, (E)-3-(3-chlorophenyl)-1-(2-hydroxy-4,6-dimethoxy-3-(1-methyl-1,2,3,6-tetrahydropyridine-4-yl)phenyl)-2-propylene-1-one] | 3.24 | 182 to 184 | 
6 | COc1cc(OC)c(C2=CCN(C)CC2)c(O)c1C(=O)/C=C/c1cccc(C)c1 [Compound A5, (E)-1-(2-hydroxy-4,6-dimethoxy-3-(1-methyl-1,2,3,6-tetrahydropyridine-4-yl)phenyl)-3-meta-methylphenyl-2-propylene-1-one] | 8.89 | 165 to 166 | 
7 | COc1cccc(/C=C/C(=O)c2c(OC)cc(OC)c(C3=CCN(C)CC3)c2O)c1 [Compound A6, (E)-1-(2-hydroxy-4,6-dimethoxy-3-(1-methyl-1,2,3,6-tetrahydropyridine-4-yl)phenyl)-3-(3-methoxyphenyl)-2-propylene-1-one] | 6.78 | 140 to 141 | 
8 | COc1cccc(/C=C/C(=O)c2c(OC)cc(OC)c(C3=CCNCC3)c2O)c1OC [Compound B4, (E)-3-(2,3-dimethoxyphenyl)-1-(2-hydroxy-4,6-dimethoxy-3-(1,2,3,6-tetrahydropyridine-4-yl)phenyl)-2-propylene-1-one] | 4.47 | 109 to 110 | 
9 | COc1cc(OC)c(C(=O)/C=C/c2ccc(Br)cc2)c(O)c1CN1CCOCC1 [Compound D4, (E)-3-(4-bromophenyl)-1-(2-hydroxy-4,6-dimethoxy-3-(morpholin-4-ylmethyl)phenyl)-2-propylene-1-one] | 5.52 | 144 to 145 | ~3
10 | COc1cc(OC)c(C2=CCNCC2)c(O)c1C(=O)/C=C/c1cccc(C)c1 [Compound B5, (E)-1-(2-hydroxy-4,6-dimethoxy-3-(1,2,3,6-tetrahydropyridine-4-yl)phenyl)-3-(3-methylphenyl)-2-propylene-1-one] | 6.13 | 95 to 96 | 
11 | COc1cc(OC)c(C2=CCNCC2)c(O)c1C(=O)/C=C/c1ccc(N(C)C)cc1 [Compound B14, (E)-3-(4-dimethylaminophenyl)-1-(2-hydroxy-4,6-dimethoxy-3-(1,2,3,6-tetrahydropyridine-4-yl)phenyl)-2-propylene-1-one] | 32 | 127 to 128 | 
12 | COc1cc(-c2cc(=O)c3c(OC)cc(OC)c(C4=CCN(C)CC4)c3o2)cc(OC)c1OC [Compound F8, 5,7-dimethoxy-8-(1-methyl-1,2,3,6-tetrahydropyridin-4-yl)-2-(3,4,5-trimethoxy-phenyl)-4H-chromen-4-one] | 25.9 | 211 to 212 | 
13 | COc1ccc(/C=C/C(=O)c2c(OC)cc(OC)c(CN3CCCCC3)c2O)cc1 [Compound C2, (E)-1-(2-hydroxy-4,6-dimethoxy-3-(piperidin-1-ylmethyl)phenyl)-3-(4-methoxyphenyl)-2-propylene-1-one] | 5.46 | 129 to 130 | 
14 | COc1cc(OC)c(C(=O)/C=C/c2ccco2)c(O)c1CN1CCOCC1 [Compound E32, (E)-3-(furan-2-yl)-1-(2-hydroxy-4,6-dimethoxy-3-(morpholin-4-ylmethyl)phenyl)-2-propylene-1-one] | 45.7 | 147 to 148 | 
15 | COc1cc(OC)c(C(=O)/C=C/c2ccc(Cl)cc2)c(O)c1CN1CCOCC1 [Compound D3, (E)-3-(4-chlorophenyl)-1-(2-hydroxy-4,6-dimethoxy-3-(morpholin-4-ylmethyl)phenyl)-2-propylene-1-one] | 6.97 | 140 to 141 | 
16 | COc1cc(OC)c(C2=CCNCC2)c(O)c1C(=O)/C=C/c1ccc(Cl)cc1 [Compound B12, (E)-3-(4-chlorophenyl)-1-(2-hydroxy-4,6-dimethoxy-3-(1,2,3,6-tetrahydropyridine-4-yl)phenyl)-2-propylene-1-one] | 4.82 | 93 to 94 | 
